The text below walks through data of patent US6924092B1, “Screening method involving MGDG synthase” (Commissariat a L'Energie Atomique, priority 1999, dated 2005).

Test [1] addresses T1, rMGD A (overexpressed spinach MGDG synthase) (Spinacia oleracea, UniProt Q9SM44).
T1 construct: Two mature forms of MGDG synthase are overexpressed in E. coli; additional initiation methionine (N); made in house; host or cells: E. coli BL21(DE3), plasmid pET-Y 3a; solubilised with CHAPS and partially purified on hydroxyapatite
T1 sequence (Q9SM44 99-522): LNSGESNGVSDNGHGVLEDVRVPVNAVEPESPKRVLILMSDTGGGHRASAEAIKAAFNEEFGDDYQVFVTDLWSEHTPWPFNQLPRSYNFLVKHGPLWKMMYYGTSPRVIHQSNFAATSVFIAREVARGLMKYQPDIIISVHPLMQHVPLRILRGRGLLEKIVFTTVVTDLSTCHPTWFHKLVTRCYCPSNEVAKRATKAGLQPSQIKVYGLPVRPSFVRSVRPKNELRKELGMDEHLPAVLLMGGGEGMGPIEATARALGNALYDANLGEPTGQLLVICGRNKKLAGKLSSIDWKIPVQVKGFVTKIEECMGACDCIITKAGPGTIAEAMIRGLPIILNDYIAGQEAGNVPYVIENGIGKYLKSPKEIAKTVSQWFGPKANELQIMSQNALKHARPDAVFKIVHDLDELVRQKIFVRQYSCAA
Put plainly: Galactosylation activity of partially purified recombinant MGDG synthase (rMGD A), measured with micelles and UDP-[14C]gal. The test is classed as biochemical. The note with it: for Inhibition of rMGD A activity (in words): overexpressed rMGD A; for activity at 150 µM: 150 μM NEM 10 min, % of control. How it is done:
The activity of the MGDG synthase is measured on various types of sample, depending on the model chosen: plastidial membrane, membrane fractions of E. coli overexpressing a recombinant MGDG synthase (rMGD A, 0.7 μg protein/assay, enzyme extracted beforehand from a plant (see Example 1)).
1.3 mM of phosphatidylglycerol (PG) and 160 μM of diacylglycerol (DAG) are dissolved in chloroform. After evaporating the solvent under argon, 200 μl of incubation medium containing 50 mM of MOPS-NaOH, pH 7.8, 4.5 mM OF CHAPS, 1 mM of DTT, 250 mM of KH2PO4/K2HPO4 and 250 mM of KCl are added and the medium is mixed vigorously so as to resuspend the lipids. 100 μl of fractions containing the MGDG synthase, in the incubation medium, are introduced then the medium is again mixed vigorously and then maintained at 20° C. for 1 h.
The reaction in the incubation mixture is then initiated by adding 1 mM of UDP-[^14C]gal (37 Bq/μmol). After 10 min to 1 h, the reaction is stopped by adding a chloroform/methanol mixture (1:2, v/v), the lipids are extracted in accordance with the method of Bligh et al (Can. J. Biochem. Physiol, 1959, 37, 911-917) and the radioactivity of the labeled galactolipids is determined by liquid scintillation counting as described in Covès et al. (FEBS lett., 1986, 208, 401-406). The activity is expressed in μmol of galactose incorporated/h/mg of protein.
The fractions of partially purified rMGD A are desalified by chromatography on a Biogel P6-DG (Bio-Rad) column (Pharmacia, C10/40 column, 30 ml of gel) equilibrated in DTT. Aliquots (200 μl) of the fractions are incubated for 40 minutes at 25° C. with gentle stirring, in the presence or absence of DTT. The galactosylation activity is then measured as specified above (see Example 3).
In order to obtain the results summarized in Table II, the rMGD A is desalified by chromatography on a Biogel P6-DG (Bio-Rad) column (Pharmacia, C10/40, column, 30 ml of gel) equilibrated in DTT. Aliquots (200 μl) of the fractions are incubated for 30 minutes at 25° C. with gentle stirring, followed by a 10 min incubation in the presence or absence of 150 μM NEM and then a 10 min incubation in the presence or absence of DTT. The galactosilyation activity is then measured as specified above (see Example 3).

Test [2] has as its target T2, MGDG synthase partially purified from spinach leaf chloroplasts (Spinacia oleracea, UniProt Q9SM44).
T2 construct: the MGDG synthase partially purified from spinach leaf chloroplasts; host or cells: spinach leaf chloroplasts (envelope membranes)
T2 sequence (Q9SM44 99-522): T1 sequence (Q9SM44 99-522)
The note with it: chloroplast envelope enzyme, Maréchal et al., J. Biol. Chem., 1995; cited from earlier work.

On to `O[C@H](CS)[C@H](O)CS` (racemic) [DTT, dithiothreitol], for which the “Effect of DTT on rMGD A activity after desalification (in words)” value in test [1] (DTT removed on Biogel P6-DG column, DTT added back) was “maintains its activity”. Also, the “Activity (%)” value in test [1] (desalified hydroxyapatite fraction + 1 mM DTT, 40 min at 25° C., percentage of the control (not desalified) activity) amounted to 75%; in test [1] (desalified hydroxyapatite fraction + 10 mM DTT, 40 min at 25° C., percentage of the control (not desalified) activity), 65%. The activity at 10000 µM in test [1] (desalified rMGD A, pre-incubation 30 min without addition, no NEM, then 10 mM DTT 10 min, % of control (50 min in 10 mM DTT)) was determined as 101%. For the same compound, the “Protection of enzyme activity against oxidation (in words)” value in test [2] is “can protect the activity of the enzyme against oxidation”.

With `c1cnc2c(c1)ccc1cccnc12` [orthophenanthroline], in test [1], the “Inhibition of rMGD A activity (in words)” value is “inhibited”. Besides, the “Activity (%)” value in test [1] (with orthophenanthroline, no other additions, initial activity (time 0) = 100) is given as 43%; in test [1] (with orthophenanthroline, other addition PG, initial activity (time 0) = 100), 27%; in test [1] (with orthophenanthroline, other addition UDP-gal, initial activity (time 0) = 100) it was 17%; in test [1] (with orthophenanthroline, other additions PG + DAG, initial activity (time 0) = 100) it was 92%. Further, in test [2], the “Inhibition of the enzyme (in words)” value is “powerful inhibitors”.

On to `CCN1C(=O)C=CC1=O` [NEM, N-ethylmaleimide], for which the “Inhibition of rMGD A activity (in words)” value in test [1] is “very sensitive”. For the same compound, the activity at 150 µM in test [1] (pre-incubation 30 min with DTT, no further DTT incubation, reaction + PG + DAG + UDP-gal) is 108%; in test [1] (pre-incubation 30 min with PG + DAG, then 10 mM DTT 10 min, reaction + UDP-gal), 60%; in test [1] (pre-incubation 30 min with PG, then 10 mM DTT 10 min, reaction + DAG + UDP-gal), 56%; in test [1] (pre-incubation 30 min with UDP-gal, then 10 mM DTT 10 min, reaction + PG + DAG), 32%; in test [1] (pre-incubation 30 min without addition, then 10 mM DTT 10 min, reaction + PG + DAG + UDP-gal), 35%. For the same compound, the “Inhibition of the enzyme (in words)” value in test [2] is recorded as “powerful inhibitors”.
